Patent US10081662B2, “Modified relaxin B chain peptides” (The Florey Institute of Neuroscience and Mental Health, priority 2014, dated 2018)
Read-outs that look alike come from different tables or passages of the source. Peptide text beside a SMILES is read from it.

Tests used:
RXFP1 [1] = target: T1, RXFP1 (Homo sapiens, UniProt Q9HBX9); assay: cAMP reporter gene assay (pCRE β-galactosidase) in HEK-293T cells transfected with RXFP1; assay type: cell-based
T1 construct: expressed in transfected cells; host or cells: HEK-293T
T1 sequence (Q9HBX9 1-757): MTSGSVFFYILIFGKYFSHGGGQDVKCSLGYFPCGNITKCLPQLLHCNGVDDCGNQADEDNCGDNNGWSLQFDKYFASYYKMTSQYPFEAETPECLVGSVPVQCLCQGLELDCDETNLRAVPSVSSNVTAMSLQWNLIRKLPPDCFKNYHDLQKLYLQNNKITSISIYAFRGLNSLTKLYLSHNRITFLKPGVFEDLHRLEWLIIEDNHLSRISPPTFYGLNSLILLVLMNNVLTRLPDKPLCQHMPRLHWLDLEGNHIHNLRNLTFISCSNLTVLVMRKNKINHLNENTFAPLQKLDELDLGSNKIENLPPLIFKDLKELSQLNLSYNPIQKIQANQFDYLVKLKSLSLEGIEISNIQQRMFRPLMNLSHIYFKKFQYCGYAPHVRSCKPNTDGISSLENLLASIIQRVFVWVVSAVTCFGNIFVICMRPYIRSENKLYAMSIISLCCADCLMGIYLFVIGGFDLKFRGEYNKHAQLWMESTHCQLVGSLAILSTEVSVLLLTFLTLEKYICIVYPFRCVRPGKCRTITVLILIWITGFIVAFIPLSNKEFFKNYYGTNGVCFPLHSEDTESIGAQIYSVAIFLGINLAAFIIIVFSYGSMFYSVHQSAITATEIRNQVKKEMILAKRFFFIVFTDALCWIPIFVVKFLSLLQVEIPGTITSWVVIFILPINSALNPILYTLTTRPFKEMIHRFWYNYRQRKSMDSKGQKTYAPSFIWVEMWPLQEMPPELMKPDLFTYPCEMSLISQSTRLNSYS
Protocol: The ability of the relaxin-2 B chain peptide derivatives generated in Example 1 to stimulate cAMP response was also evaluated, using a cAMP reporter gene assay as described previously (Scott et al., 2006, J Biol Chem. 281, 34942-34954). HEK-293T cells co-transfected with either RXFP1 or RXFP2, or 7BP cells, and a pCRE β-galactosidase reporter plasmid were plated in 96-well plates. After 24 hours, the co-transfected cells were incubated with increasing concentrations of peptides in parallel to 10 nM of H2 relaxin or INSL3 for RXFP1- or RXFP2-transfected cells respectively. The amount of cAMP-driven β-galactosidase expression in each well was assessed with a colorimetric assay measuring absorbance at 570 nm on a microplate spectrophotometer. Ligand-induced cAMP stimulation was expressed as a percentage of maximal response of H2 relaxin or INSL3 for RXFP1 and RXFP2 cells respectively. Each data point was measured in triplicate and each experiment conducted independently at least three separate times. Statistical differences in pEC50 values were analyzed using one-way ANOVA coupled to Newman Keul's multiple comparison test for multiple group comparisons in GraphPad Prism 6.

[2] = target: T2, fusion protein comprising the extracellular domain of RXFP1 and the transmembrane domain of CD8 (7BP cells) (Homo sapiens, UniProt Q9HBX9); assay: Eu-labelled H2 relaxin competition binding to 7BP cells
T2 construct: the extracellular domain of RXFP1 and the transmembrane domain of CD8; expressed in transfected cells
T2 sequence (Q9HBX9 1-409 limits assumed): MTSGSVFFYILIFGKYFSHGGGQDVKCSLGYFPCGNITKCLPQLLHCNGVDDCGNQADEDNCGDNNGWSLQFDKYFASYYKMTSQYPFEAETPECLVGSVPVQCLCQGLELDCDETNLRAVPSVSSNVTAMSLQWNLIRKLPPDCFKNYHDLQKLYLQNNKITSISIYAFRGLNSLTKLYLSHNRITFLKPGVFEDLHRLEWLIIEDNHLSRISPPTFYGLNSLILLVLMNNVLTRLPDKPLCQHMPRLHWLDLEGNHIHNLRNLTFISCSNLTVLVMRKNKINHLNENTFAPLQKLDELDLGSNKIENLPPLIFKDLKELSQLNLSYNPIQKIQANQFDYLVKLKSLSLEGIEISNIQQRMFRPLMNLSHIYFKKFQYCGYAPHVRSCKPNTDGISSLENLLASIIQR

RXFP1 [3] = target: T1, RXFP1; assay: Eu-labelled H2 relaxin competition binding, whole HEK-293T cells stably transfected with RXFP1
Protocol: Human embryonic kidney (HEK-293T) cells stably transfected with RXFP1 were cultured in RPMI 1640 medium supplemented with 10% fetal calf serum, 100 μg/ml penicillin, 100 μg/ml streptomycin and 2 mM L-glutamine and plated into 96-well pre-coated with poly-L-lysine for whole cell binding assays. Competition binding experiments were conducted with Eu^3+-labelled H2 relaxin (as per Shabanpoor et al., 2012, Biochem Biophys Res Commun. 420, 253-256) in the absence or presence of increasing concentrations of unlabelled relaxin-2 B chain derivatives. Nonspecific binding was determined with an excess of unlabelled peptides (500 nM H2 relaxin). Fluorescent measurements were recorded at an excitation wavelength of 340 nm and emission of 614 nm on a Victor plate reader (Perkin-Elmer Inc.). […] Statistical differences in pIC50 values were analyzed using one-way analysis of variance coupled to Newman Keul's multiple comparison test for multiple group comparisons in GraphPad Prism 6.

[4] = Solubility of relaxin B chain peptides in aqueous solution
[5] = HEK-293T cells co-transfected with RXFP1 and pCRE β-galactosidase reporter, n ≥ 3, read-out: RXFP1 cAMP pEC50 (converted)
[6] = 7BP cells, competition with Eu-labelled H2 relaxin, n ≥ 3, read-out: 7BP Eu-H2 pKi (converted)
[7] = HEK-293T cells stably transfected with RXFP1, competition with Eu-labelled H2 relaxin, mean ± S.E, n ≥ 3, read-out: RXFP1 Eu-H2 pKi (converted)

Structure (SMILES) | EC50 (RXFP1 [1]; [5]) | Ki [2, 6] | Ki (RXFP1 [3]; [7]) | Solubility at concentration 4 mg/ml ([4]; 4 mg/ml, FIG. 1) | Aqueous solubility (in words) ([4]; aqueous solution) | EC50 (RXFP1 [1]) | Ki [2] | Ki (RXFP1 [3])
CC[C@H](C)[C@H](NC(=O)[C@H](C)NC(=O)[C@@H](NC(=O)[C@H](CCC(N)=O)NC(=O)[C@H](C)NC(=O)[C@H](CCCNC(=N)N)NC(=O)[C@@H](NC(=O)[C@H](CC(C)C)NC(=O)[C@H](CCC(=O)O)NC(=O)[C@H](CCCNC(=N)N)NC(=O)CNC(=O)[C@H](CO)NC(=O)[C@H](CC(C)C)NC(=O)[C@H](CCCCN)NC(=O)[C@@H](NC(=O)[C@@H](NC(C)=O)C(C)C)[C@@H](C)CC)C(C)C)[C@@H](C)CC)C(=O)N[C@@H](CO)C(=O)NCC(=O)N[C@@H](CCSC)C(=O)N[C@@H](CO)C(=O)N[C@H](C(=O)N[C@@H](Cc1c[nH]c2ccccc12)C(=O)N[C@@H](CO)C(=O)N[C@@H](CCCCN)C(=O)N[C@@H](CCCNC(=N)N)C(=O)N[C@@H](CO)C(=O)N[C@@H](CC(C)C)C(N)=O)[C@@H](C)O [AcB7-33 C11.23S] (Ac-VIKLSGRELVRAQIAISGMSTWSKRSL-NH2) | 3980 nM | 28.8 nM | 1000 nM |  |  |  |  | 
CC[C@H](C)[C@H](NC(=O)[C@H](C)NC(=O)[C@@H](NC(=O)[C@H](CCC(N)=O)NC(=O)[C@H](C)NC(=O)[C@H](CCCNC(=N)N)NC(=O)[C@@H](NC(=O)[C@H](CC(C)C)NC(=O)[C@H](CCC(=O)O)NC(=O)[C@H](CCCNC(=N)N)NC(=O)CNC(=O)[C@H](CS)NC(=O)[C@H](CC(C)C)NC(=O)[C@H](CCCCN)NC(=O)[C@@H](NC(=O)[C@@H](NC(=O)[C@H](CCC(=O)O)NC(=O)[C@H](CCC(=O)O)NC(=O)[C@H](CCSC)NC(=O)[C@H](Cc1c[nH]c2ccccc12)NC(=O)[C@H](CO)NC(=O)[C@@H](N)CC(=O)O)C(C)C)[C@@H](C)CC)C(C)C)[C@@H](C)CC)C(=O)N[C@@H](CS)C(=O)NCC(=O)N[C@@H](CCSC)C(=O)N[C@@H](CO)C(=O)N[C@H](C(=O)N[C@@H](Cc1c[nH]c2ccccc12)C(=O)N[C@@H](CO)C(N)=O)[C@@H](C)O [H2 B chain] |  |  |  | insoluble | insoluble in aqueous solution |  |  | 
CC[C@H](C)[C@H](NC(=O)[C@H](C)NC(=O)[C@@H](NC(=O)[C@H](CCC(N)=O)NC(=O)[C@H](C)NC(=O)[C@H](CCCNC(=N)N)NC(=O)[C@@H](NC(=O)[C@H](CC(C)C)NC(=O)[C@H](CCC(=O)O)NC(=O)[C@H](CCCNC(=N)N)NC(=O)CNC(=O)[C@H](CO)NC(=O)[C@H](CC(C)C)NC(=O)[C@H](CCCCN)NC(=O)[C@@H](NC(=O)[C@@H](NC(C)=O)C(C)C)[C@@H](C)CC)C(C)C)[C@@H](C)CC)C(=O)N[C@@H](CO)C(=O)NCC(=O)N[C@@H](CCSC)C(=O)N[C@@H](CO)C(=O)N[C@H](C(=O)N[C@@H](Cc1c[nH]c2ccccc12)C(=O)N[C@@H](CO)C(=O)N[C@@H](CCCCN)C(=O)N[C@@H](CCCCN)C(=O)N[C@@H](CCCCN)C(=O)N[C@@H](CCCCN)C(N)=O)[C@@H](C)O [KKKK (AcB7-29 C11.23S)] (Ac-VIKLSGRELVRAQIAISGMSTWSKKKK-NH2) | 1550 nM | 1.23 nM | 562 nM |  |  |  |  | 
CC[C@H](C)[C@H](NC(=O)[C@H](C)NC(=O)[C@H](C)NC(=O)[C@H](CCC(N)=O)NC(=O)[C@H](C)NC(=O)[C@H](C)NC(=O)[C@@H](NC(=O)[C@H](CC(C)C)NC(=O)[C@H](CCC(=O)O)NC(=O)[C@H](C)NC(=O)CNC(=O)[C@H](CO)NC(=O)[C@H](CC(C)C)NC(=O)[C@H](CCCCN)NC(=O)[C@@H](NC(=O)[C@@H](NC(C)=O)C(C)C)[C@@H](C)CC)C(C)C)C(=O)N[C@@H](CO)C(=O)NCC(=O)N[C@@H](CCSC)C(=O)N[C@@H](CO)C(=O)N[C@H](C(=O)N[C@@H](Cc1c[nH]c2ccccc12)C(=O)N[C@@H](CO)C(=O)N[C@@H](CCCCN)C(=O)N[C@@H](CCCNC(=N)N)C(=O)N[C@@H](CO)C(=O)N[C@@H](CC(C)C)C(N)=O)[C@@H](C)O [R13/17A. I20A (AcB7-33 C11.23S)] (Ac-VIKLSGAELVAAQAAISGMSTWSKRSL-NH2) |  |  |  |  |  | > 10000 nM | 2880 nM | > 10000 nM

Second part, led by results:

EC50 (RXFP1 [1]; [5]) | Ki [2, 6] | Ki (RXFP1 [3]; [7]) | Solubility at concentration 4 mg/ml ([4]; 4 mg/ml, FIG. 1) | Aqueous solubility (in words) ([4]; aqueous solution) | Structure (SMILES) | EC50 (RXFP1 [1]) | Ki [2] | Ki (RXFP1 [3])
> 10000 nM | 1740 nM | > 10000 nM |  |  | CC[C@H](C)[C@H](NC(=O)[C@H](C)NC(=O)[C@@H](NC(=O)[C@H](CCC(N)=O)NC(=O)[C@H](C)NC(=O)[C@H](CCCNC(=N)N)NC(=O)[C@@H](NC(=O)[C@H](CC(C)C)NC(=O)[C@H](CCC(=O)O)NC(=O)[C@H](C)NC(=O)CNC(=O)[C@H](CO)NC(=O)[C@H](CC(C)C)NC(=O)[C@H](CCCCN)NC(=O)[C@@H](NC(=O)[C@@H](NC(C)=O)C(C)C)[C@@H](C)CC)C(C)C)[C@@H](C)CC)C(=O)N[C@@H](CO)C(=O)NCC(=O)N[C@@H](CCSC)C(=O)N[C@@H](CO)C(=O)N[C@H](C(=O)N[C@@H](Cc1c[nH]c2ccccc12)C(=O)N[C@@H](CO)C(=O)N[C@@H](CCCCN)C(=O)N[C@@H](CCCNC(=N)N)C(=O)N[C@@H](CO)C(=O)N[C@@H](CC(C)C)C(N)=O)[C@@H](C)O [R13A (AcB7-33 C11.23S)] (Ac-VIKLSGAELVRAQIAISGMSTWSKRSL-NH2) |  |  | 
> 10000 nM | 977 nM | > 10000 nM |  |  | CC[C@H](C)[C@H](NC(=O)[C@H](C)NC(=O)[C@@H](NC(=O)[C@H](CCC(N)=O)NC(=O)[C@H](C)NC(=O)[C@H](C)NC(=O)[C@@H](NC(=O)[C@H](CC(C)C)NC(=O)[C@H](CCC(=O)O)NC(=O)[C@H](CCCNC(=N)N)NC(=O)CNC(=O)[C@H](CO)NC(=O)[C@H](CC(C)C)NC(=O)[C@H](CCCCN)NC(=O)[C@@H](NC(=O)[C@@H](NC(C)=O)C(C)C)[C@@H](C)CC)C(C)C)[C@@H](C)CC)C(=O)N[C@@H](CO)C(=O)NCC(=O)N[C@@H](CCSC)C(=O)N[C@@H](CO)C(=O)N[C@H](C(=O)N[C@@H](Cc1c[nH]c2ccccc12)C(=O)N[C@@H](CO)C(=O)N[C@@H](CCCCN)C(=O)N[C@@H](CCCNC(=N)N)C(=O)N[C@@H](CO)C(=O)N[C@@H](CC(C)C)C(N)=O)[C@@H](C)O [R17A (AcB7-33 C11.23S)] (Ac-VIKLSGRELVAAQIAISGMSTWSKRSL-NH2) |  |  | 
